The text below walks through data of ChEMBL document CHEMBL5223189, “Discovery of Selective Aldehyde Dehydrogenase Inhibitors for the Treatment of Cancer” (ACS Med Chem Lett, 2023).

The target in assay [1] is T1, Aldehyde dehydrogenase, mitochondrial (Homo sapiens, UniProt P05091).
T1 sequence (P05091 whole entry): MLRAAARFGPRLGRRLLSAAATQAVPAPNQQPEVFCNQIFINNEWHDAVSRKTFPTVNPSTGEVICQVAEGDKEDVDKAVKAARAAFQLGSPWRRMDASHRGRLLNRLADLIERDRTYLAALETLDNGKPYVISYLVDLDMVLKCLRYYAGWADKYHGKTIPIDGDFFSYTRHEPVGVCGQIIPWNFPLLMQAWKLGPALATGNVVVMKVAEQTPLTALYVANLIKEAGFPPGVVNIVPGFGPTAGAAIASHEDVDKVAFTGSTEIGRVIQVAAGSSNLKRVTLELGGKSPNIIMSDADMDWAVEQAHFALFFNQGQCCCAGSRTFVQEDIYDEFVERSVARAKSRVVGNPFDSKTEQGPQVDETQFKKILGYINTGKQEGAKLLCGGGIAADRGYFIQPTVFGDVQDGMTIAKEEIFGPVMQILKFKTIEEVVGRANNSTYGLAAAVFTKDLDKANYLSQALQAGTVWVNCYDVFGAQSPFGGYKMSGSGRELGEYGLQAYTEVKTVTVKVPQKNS
The assay is described as follows: Inhibition of full length human ALDH2 using propionaldehyde as substrate preincubated for 30 mins followed by substrate addition and measured after 30 mins in presence of NAD by luminescence microplate reader analysis.

The target in assay [2] is T2, Aldehyde dehydrogenase 1A1 (Homo sapiens, UniProt P00352).
T2 sequence (P00352 whole entry): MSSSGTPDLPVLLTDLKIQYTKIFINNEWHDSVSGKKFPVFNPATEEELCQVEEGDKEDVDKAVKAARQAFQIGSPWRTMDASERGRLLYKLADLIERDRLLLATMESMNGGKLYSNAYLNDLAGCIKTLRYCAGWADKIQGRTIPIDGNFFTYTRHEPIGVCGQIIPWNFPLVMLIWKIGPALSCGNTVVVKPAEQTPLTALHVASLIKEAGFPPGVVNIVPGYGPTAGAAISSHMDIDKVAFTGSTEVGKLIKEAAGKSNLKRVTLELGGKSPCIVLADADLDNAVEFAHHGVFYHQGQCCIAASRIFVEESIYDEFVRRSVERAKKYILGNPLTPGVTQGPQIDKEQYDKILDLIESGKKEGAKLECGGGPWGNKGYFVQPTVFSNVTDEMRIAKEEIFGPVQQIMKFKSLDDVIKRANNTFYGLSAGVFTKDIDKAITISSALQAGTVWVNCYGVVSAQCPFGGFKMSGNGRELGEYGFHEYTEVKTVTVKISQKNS
The assay is described as follows: Inhibition of full length human ALDH1A1 using propionaldehyde as substrate preincubated for 30 mins followed by substrate addition and measured after 30 mins in presence of NAD by luminescence microplate reader analysis.

The next assay deals with T3, Retinal dehydrogenase 2 (Homo sapiens, UniProt O94788).
T3 sequence (O94788 whole entry): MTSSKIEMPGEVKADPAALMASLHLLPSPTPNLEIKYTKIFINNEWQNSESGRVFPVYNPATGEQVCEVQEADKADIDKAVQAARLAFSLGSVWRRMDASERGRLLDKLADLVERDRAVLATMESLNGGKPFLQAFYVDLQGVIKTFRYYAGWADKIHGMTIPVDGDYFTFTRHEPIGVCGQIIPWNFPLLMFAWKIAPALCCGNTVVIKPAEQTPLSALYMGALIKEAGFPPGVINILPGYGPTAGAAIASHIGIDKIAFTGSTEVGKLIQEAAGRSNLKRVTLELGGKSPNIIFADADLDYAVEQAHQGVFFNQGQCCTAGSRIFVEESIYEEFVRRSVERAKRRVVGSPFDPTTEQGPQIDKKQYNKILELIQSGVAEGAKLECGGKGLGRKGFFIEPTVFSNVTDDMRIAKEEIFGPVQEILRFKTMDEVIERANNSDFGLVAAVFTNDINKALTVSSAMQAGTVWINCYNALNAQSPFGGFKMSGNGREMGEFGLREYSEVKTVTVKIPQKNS
Briefly: Inhibition of full length human ALDH1A2 using propionaldehyde as substrate preincubated for 30 mins followed by substrate addition and measured after 30 mins in presence of NAD by luminescence microplate reader analysis.

Assay [3] deals with T4, Retinaldehyde dehydrogenase 3 (Homo sapiens, UniProt P47895).
T4 sequence (P47895 whole entry): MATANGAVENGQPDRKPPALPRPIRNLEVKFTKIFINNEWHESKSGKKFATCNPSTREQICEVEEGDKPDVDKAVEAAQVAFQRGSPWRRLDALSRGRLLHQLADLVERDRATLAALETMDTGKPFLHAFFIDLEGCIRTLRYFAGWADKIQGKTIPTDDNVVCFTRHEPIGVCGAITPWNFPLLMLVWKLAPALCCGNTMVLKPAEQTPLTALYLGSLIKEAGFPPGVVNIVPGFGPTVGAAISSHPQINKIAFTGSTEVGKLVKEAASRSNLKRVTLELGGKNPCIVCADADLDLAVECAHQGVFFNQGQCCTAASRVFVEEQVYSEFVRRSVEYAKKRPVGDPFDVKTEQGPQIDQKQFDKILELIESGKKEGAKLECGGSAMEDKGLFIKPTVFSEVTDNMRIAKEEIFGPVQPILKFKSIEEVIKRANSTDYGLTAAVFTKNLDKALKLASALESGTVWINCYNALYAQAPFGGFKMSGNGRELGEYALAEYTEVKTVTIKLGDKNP
Briefly: Inhibition of full length human ALDH1A3 using propionaldehyde as substrate preincubated for 30 mins followed by substrate addition and measured after 30 mins in presence of NAD by luminescence microplate reader analysis.

Assay [4] deals with T4, Retinaldehyde dehydrogenase 3. Briefly: Inhibition of human ALDH1A3 in human WM266-4 cells incubated for 60 mins using BODIPY-aminoacetaldehyde as substrate in presence of ALDEFLUOR assay buffer by Hoechst 33342 staining based cell Insight fluorescent microscopic anlaysis.

Take `O=C1CCc2cc(OCCN3CCC[C@@H]3c3cccc(F)c3)ccc2N1`: the IC50 in assay [1] is no less than 100000 nM; in assay [2], no less than 100000 nM; at Retinal dehydrogenase 2, 100 nM; in assay [3] it was less than 100 nM; in assay [4], less than 100 nM.

With `CN(C)c1nc(-c2cccc(F)c2)c(C(=O)Nc2ccc3c(c2)CCC(=O)N3)s1`, the IC50 in assay [1] is no less than 100000 nM; in assay [2], no less than 100000 nM; on Retinal dehydrogenase 2, 1000 nM; in assay [3], less than 100 nM; in assay [4] it was less than 100 nM.

Turning to `O=C1CCc2cc(NC(=O)c3scnc3-c3cccc(F)c3)ccc2N1`, the IC50 in assay [1] is no less than 100000 nM; in assay [2] it was no less than 100000 nM; at Retinal dehydrogenase 2, 1000 nM; in assay [3], less than 100 nM; in assay [4] it was less than 100 nM.

Take `O=C1CCc2cc(NC(=O)c3sc(N4CC(O)C4)nc3-c3cccc(F)c3)ccc2N1`: the IC50 in assay [1] was no less than 100000 nM; in assay [2], no less than 100000 nM; on Retinal dehydrogenase 2, no less than 100000 nM; in assay [3], less than 100 nM; in assay [4] it was less than 100 nM.

On to `O=C1CCc2cc(OCCN3CCCC3c3cccc(F)c3)ccc2N1` (stereo not given), for which the half-maximal inhibitory concentration (IC50) was no less than 100000 nM in assay [1]; no less than 100000 nM in assay [2]; 100 nM at Retinal dehydrogenase 2; less than 100 nM in assay [3]; less than 100 nM in assay [4].

For the compound `O=C1CCc2cc(NC(=O)c3sc(N4CCOCC4)nc3-c3cccc(F)c3)ccc2N1`, the IC50 was no less than 100000 nM in assay [1]; no less than 100000 nM in assay [2]; no less than 100000 nM at Retinal dehydrogenase 2; less than 100 nM in assay [3]; less than 100 nM in assay [4].

For `O=C1CCc2cc(NC(=O)c3sc(N4CCNCC4)nc3-c3cccc(F)c3)ccc2N1`, the IC50 is no less than 100000 nM in assay [1]; no less than 100000 nM in assay [2]; 10000 nM at Retinal dehydrogenase 2; less than 100 nM in assay [3]; less than 100 nM in assay [4].

Consider `O=C1CCc2cc(NC(=O)c3scnc3-c3ccccc3F)ccc2N1`, for which the IC50 in assay [1] was no less than 100000 nM; in assay [2], no less than 100000 nM; at Retinal dehydrogenase 2, 1000 nM; in assay [3], less than 100 nM; in assay [4], less than 100 nM.

By IC50 is commonly meant the concentration that inhibits the measured activity by half.
